From patent US20160108027A1, “SUBSTITUTED BENZOXAZOLES” (BAYER PHARMA AKTIENGESELLSCHAFT, priority 2013, published 2016)

Assays:
thrombin [1] = molecular target: T1, thrombin (Homo sapiens, UniProt P00734); test: Determination of the thrombin-inhibitory activity in plasma samples (ecarin-activated); assay type: biochemical; conditions: citrate plasma, ecarin activation, fluorogenic thrombin substrate; in some cases means of individual determinations
In short: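 Citrate plasma activated with ecarin (final 20 mU per reaction) in Ca buffer (Hepes, NaCl, CaCl2, PEG), with compound diluted from DMSO into water. Fluorogenic thrombin substrate at final 50 μmol/l; fluorescence (ex 360/em 465 nm) read each minute for 20 minutes, with buffer-only unstimulated control.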

thrombin [2] = molecular target: T1, thrombin; test: Measurement of the thrombin inhibition in buffer; assay type: biochemical; conditions: human thrombin 0.06 nmol/l in Tris buffer pH 7.4, 22° C., substrate Boc-Asp(OBzl)-Pro-Arg-AMC; in some cases means of individual determinations
In short: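 Compound pre-incubated 15 min at 22° C with 0.06 nmol/l human thrombin in 50 mmol/l Tris, 100 mmol/l NaCl, 0.1% BSA, pH 7.4, then 5 μmol/l Boc-Asp(OBzl)-Pro-Arg-AMC added for 30 min. AMC fluorescence read at 360/460 nm against DMSO controls; IC50 from concentration–activity curves.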

SMILES | IC50 (thrombin [1]) [nM] | IC50 (thrombin [2]) [nM]
COc1cc(C(=O)N2C[C@H](OC3CC3)C[C@H]2C(=O)N2CC(F)C2)cc2nc(NCc3cc(Cl)ccn3)oc12 [Example 11, (2-{[(4-Chloropyridin-2-yl)methyl]amino}-7-methoxy-1,3-benzoxazol-5-yl){(2S,4R)-4-(cyclopropyloxy)-2-[(3-fluoroazetidin-1-yl)carbonyl]pyrrolidin-1-yl}methanone] | 101 | 31
COc1cc(C(=O)N2C[C@H](OC3CC3)C[C@H]2CO)cc2nc(NCc3cc(Cl)ccn3)oc12 [Example 12, (2-{[(4-Chloropyridin-2-yl)methyl]amino}-7-methoxy-1,3-benzoxazol-5-yl)[(2S,4R)-4-(cyclopropyloxy)-2-(hydroxymethyl)pyrrolidin-1-yl]methanone] | 8.9 | 4.4
COc1cc(C(=O)N2C[C@H](OC3CC3)C[C@H]2CO)cc2nc(NC(C)c3cc(Cl)ccn3)oc12 (stereo partly drawn) [Example 13, (2-{[1-(4-Chloropyridin-2-yl)ethyl]amino}-7-methoxy-1,3-benzoxazol-5-yl)[(2S,4R)-4-(cyclopropyloxy)-2-(hydroxymethyl)pyrrolidin-1-yl]methanone] | 31 | 21
COc1cc(C(=O)N2CC(C)(CCO)OCC2CF)cc2nc(NCc3cc(Cl)ccn3)oc12 (centres unmarked) [Example 21, (2-{[(4-Chloropyridin-2-yl)methyl]amino}-7-methoxy-1,3-benzoxazol-5-yl) [5-(fluoromethyl)-2-(2-hydroxyethyl)-2-methylmorpholin-4-yl]methanone] | 55 | 10
COc1cc(C(=O)N2CC(C)(CC(C)O)OC[C@H]2C)cc2nc(NC(C)c3cc(Cl)ccn3)oc12 (stereo partly drawn) [Example 26, (2-{[1-(4-Chloropyridin-2-yl)ethyl]amino}-7-methoxy-1,3-benzoxazol-5-yl)[(5R)-2-(2-hydroxypropyl)-2,5-dimethylmorpholin-4-yl]methanone] | 44 | 6.2
CC[C@@H]1COC(C)(CCO)CN1C(=O)c1cc(OC)c2oc(NCc3cc(Cl)ccn3)nc2c1 (some centres unmarked) [Example 28] | 17 | 3.2
COCC1COC(C)(CCO)CN1C(=O)c1cc(OC)c2oc(NCc3cc(Cl)ccn3)nc2c1 (centres unmarked) [Example 30] | 65 | 25
COc1cc(C(=O)N2CC(C)OCC2C2CC(O)C2)cc2nc(NCc3cc(Cl)ccn3)oc12 (centres unmarked) [Example 46, (2-{[(4-Chloropyridin-2-yl)methyl]amino}-7-methoxy-1,3-benzoxazol-5-yl) [5-(3-hydroxycyclobutyl)-2-methylmorpholin-4-yl]methanone] | 23 | 14
COc1cc(C(=O)N2CC(C)(CCO)OCC2C(F)F)cc2nc(NCc3cc(Cl)ccn3)oc12 (centres unmarked) [Example 54, (2-{[(4-Chloropyridin-2-yl)methyl]amino}-7-methoxy-1,3-benzoxazol-5-yl) [5-(difluormethyl)-2-(2-hydroxyethyl)-2-methylmorpholin-4-yl]methanone] | 35 | 11
COc1cc(C(=O)N2CC(C)(C)OC[C@H]2CCO)cc2nc(NCc3cc(Cl)ccn3)oc12 [Example 58, (2-{[(4-Chloropyridin-2-yl)methyl]amino}-7-methoxy-1,3-benzoxazol-5-yl)[(5R)-5-(2-hydroxyethyl)-2,2-dimethylmorpholin-4-yl]methanone] | 27 | 17
COc1cc(C(=O)N2CC(C)(C)OC[C@H]2CCO)cc2nc(NC(C)c3cc(Cl)ccn3)oc12 (stereo partly drawn) [Example 59, (2-{[1-(4-Chloropyridin-2-yl)ethyl]amino}-7-methoxy-1,3-benzoxazol-5-yl)[(5R)-5-(2-hydroxyethyl)-2,2-dimethylmorpholin-4-yl]methanone] | 90 | 60

Other lines, results leading:

IC50 (thrombin [1]) [nM] | IC50 (thrombin [2]) [nM] | SMILES
72 | 59 | COc1cc(C(=O)N2CC(C)OC[C@@H]2[C@@H](C)O)cc2nc(NCc3cc(Cl)ccn3)oc12 (stereo partly drawn) [Example 68, (2-{[(4-Chloropyridin-2-yl)methyl]amino}-7-methoxy-1,3-benzoxazol-5-yl){(5R)-5-[(1R)-1-hydroxyethyl]-2-methylmorpholin-4-yl}methanone]
27 | 17 | COc1cc(C(=O)N2CC(C)(C)OCC2(C)C(C)O)cc2nc(NCc3cc(Cl)ccn3)oc12 (centres unmarked) [Example 69, (2-{[(4-Chloropyridin-2-yl)methyl]amino}-7-methoxy-1,3-benzoxazol-5-yl) [5-(1-hydroxyethyl)-2,2,5-trimethylmorpholin-4-yl]methanone]
50 | 51 | CCC1C(=O)N2CCC2CN1C(=O)c1cc(OC)c2oc(NCc3cc(Cl)ccn3)nc2c1 (centres unmarked) [Example 73, 4-[(2-{[(4-Chloropyridin-2-yl)methyl]amino}-7-methoxy-1,3-benzoxazol-5-yl)carbonyl]-3-ethyl-1,4-diazabicyclo[4.2.0]octan-2-one]
27 | 5.3 | COc1cc(C(=O)N2CC(C)CCC2CC2(O)CC2)cc2nc(NCc3cc(Cl)ccn3)oc12 (centres unmarked) [Example 87, (2-{[(4-Chloropyridin-2-yl)methyl]amino}-7-methoxy-1,3-benzoxazol-5-yl){2-[(1-hydroxycyclopropyl)methyl]-5-methylpiperidin-1-yl}methanone]
27 | 17 | [2H]C([2H])(C)O[C@@H]1CC(CO)N(C(=O)c2cc(OC)c3oc(NC(C)c4cc(Cl)ccn4)nc3c2)C1 (stereo partly drawn) [Example 97, (2-{[1-(4-Chloropyridin-2-yl)ethyl]amino}-7-methoxy-1,3-benzoxazol-5-yl)[(4R)-4-[(1,1-^2H2)ethyloxy]-2-(hydroxymethyl)pyrrolidin-1-yl]methanone]
